What is called solubility is the dissolved amount per volume that the medium holds. For orientation: IC50 means the concentration at which inhibition is half-maximal.

Results on 13 molecules are retold here after patent publication US20050042293A1, “Polymeric systems for drug delivery and uses thereof” (The University of British Columbia, priority 1997, published 2005).

Data set [1] in a line: Drug-dependent solidification: time for paste pellets to break up under stirring at 300 rpm at 37° C. The format is physicochemical. The conditions noted are these: 10% w/w drug in 40:60 (TB:MePEG350) paste; 1 hour at 37° C. then 300 rpm.
Procedure: Fifteen milligrams of each composition were placed in a 20 mL glass scintillation vial and cooled to 4° C. to form uniform solid pellets. Five milliliters of ice cold phosphate-buffered saline (PBS; pH 7.4) containing 0.2% bovine serum albumin (Fraction 4, Boehringer Mannheim) were placed on top of the pellet, and the vial was placed in a stationary position in a 37° C. oven for 1 hour. At this time, a stir bar was placed in the vial and stirring was commenced at 300 rpm until the paste pellet disintegrated.
Data set [2] in a line: In vitro drug release from TB:MePEG350 pastes into PBS/albumin with octanol phase. The conditions noted are these: 10% drug-loaded TB:MePEG350 (40:60) paste. Format: physicochemical.
Procedure: Fifteen milligrams of each composition were placed in 20 mL glass scintillation vials and cooled to 4° C. to form uniform solid pellets. Five milliliters of ice cold phosphate-buffered saline (PBS; pH 7.4) containing 0.2% bovine serum albumin (Fraction 4, Boehringer Mannheim) were placed on top of the pellet followed by 5 mL of octanol (Fisher Scientific). The octanol formed an upper imiscible phase on top of the PBS so that any drug released into the PBS would partition into the octanol phase.
UV/VIS analysis was performed by determining the absorbance at the specified wavelength. Calibration graphs of the drugs in octanol were established by measuring the absorbance of a set of standards of each drug in octanol in the 0 to 50 μg/mL concentration range.
Data set [3] in a line: physchem.
For data set [4] the following is noted: cited from earlier work.
Data set [5] can be described thus: Water solubility studies by the present inventors.
Data set [6] has as its system LNCaP cells. The experiment in a line: LNCaP cell proliferation in vitro (crystal violet, 492 nm absorbance). The note with it: for % Growth: relative to control wells (100%). The format is cell-based, human. The protocol:
LNCap cells are human metastatic prostate adenocarcinoma cells that are used as a model for prostate cancer (see, e.g., Pousette et al., Prostate 31:198, 1997). In one study, LNCaP cells were seeded at concentrations of 2×10^3 and 1×10^3 cells/well in 96 well plates. […] After incubation, the cells were fixed with 1% glutaraldehyde solution, and stained for 5 minutes with 0.5% crystal violet. The dye was successively eluted with 100 μl of buffer solution and the absorbance was read on a Titertek Multiskan microplate reader using a wavelength of 492 nm absorbance. Cell growth was expressed as a percentage relative to control wells in the absence of the compound (set at 100%).

For data set [7], the system named is LNCaP cells. Kind of data set: Apoptosis / DNA fragmentation assay in LNCaP cells. Format: cell-based, human.
For data set [8] the following is noted: single dose in humans; cited from earlier work.

Each structure is given as a SMILES string. Values after ≈ are worked out from the molar mass of the structure shown. Read-outs that look alike come from different tables or passages of the source.

`CN(Cc1cnc2nc(N)nc(N)c2n1)c1ccc(C(=O)N[C@@H](CCC(=O)O)C(=O)O)cc1` [methotrexate]: the “disintegration time under stirring” value in data set [1] was determined as 30 s. Besides, the encapsulated drug released result in data set [2] (first 24 hours) is recorded as “almost all the encapsulated drug”. The same molecule returned a solubility in data set [3] (pH 7.4, aqueous buffer) above 500 µg/mL.
`O=c1c(-c2ccc(O)cc2)coc2cc(O)cc(O)c12` [Genistein]: in data set [2] (by day 7), the “total encapsulated drug released” value was determined as 50%. For the same molecule, the “solubility in water (in words)” value in data set [4] (water) was “practically insoluble in water”; in data set [4] (water, listed as genistein) it was “insoluble in water”. Also, the water solubility entry in data set [5] (water) was “approximately 1 μg/mL”. The molecule also showed a solubility in data set [5] (water, water solubility) below 2 µg/mL.
In the case of `C[C@@H]1[C@H](O)[C@@H](C)/C=C/C=C/C=C/C=C/C=C/C=C/C=C/[C@H](O[C@@H]2O[C@H](C)[C@@H](O)[C@H](N)[C@@H]2O)C[C@@H]2O[C@](O)(C[C@@H](O)C[C@@H](O)[C@H](O)CC[C@@H](O)C[C@@H](O)CC(=O)O[C@H]1C)C[C@H](O)[C@H]2C(=O)O` [Amphotericin], the “solubility in water (in words)” value in data set [4] (water at pH 6 to 7) and in data set [4] (water) was “insoluble in water” in each case. The solubility in data set [3] (water) was below 2 µg/mL.
Take `COc1cc2c(c(OC)c1OC)-c1ccc(OC)c(=O)cc1[C@@H](NC(C)=O)CC2` [colchicine]: the “time paste pellet stayed intact under stirring” value in data set [1] is 2.5 min. In data set [5] (pH 7.4, aqueous buffer, water solubility in PBS/albumin, PBS/albumin (pH 7.4)), this molecule showed a solubility above 500 µg/mL.
Take `CC(=O)O[C@H]1C(=O)[C@@]2(C)[C@H]([C@H](OC(=O)c3ccccc3)[C@]3(O)C[C@H](OC(=O)[C@H](O)[C@@H](NC(=O)c4ccccc4)c4ccccc4)C(C)=C1C3(C)C)[C@]1(OC(C)=O)CO[C@@H]1C[C@@H]2O` [Paclitaxel]: the “492 nm Absorbance” value is recorded as 0.049 ± 0.05 in data set [6] (0.001 nM, 5 days); 0.40 ± 0.03 in data set [6] (0.01 nM, 5 days); 0.36 ± 0.02 in data set [6] (0.05 nM, 5 days); 0.20 ± 0.03 in data set [6] (0.1 nM, 5 days); 0.025 ± 0.01 in data set [6] (1 nM, 5 days); 0.027 ± 0.01 in data set [6] (10 nM, 5 days). Moreover, the “492 nm Absorbance” value in data set [6] (100 nM, 5 days) is recorded as 0.033 ± 0.01. Moreover, the “% Growth” value is reported as 100% in data set [6] (0.001 nM, 5 days); 81% in data set [6] (0.01 nM, 5 days); 73% in data set [6] (0.05 nM, 5 days); 40% in data set [6] (0.1 nM, 5 days); 5% in data set [6] (1 nM, 5 days); 5% in data set [6] (10 nM, 5 days). The “% Growth” value in data set [6] (100 nM, 5 days) was 6%. Further, the “lowest concentration causing inhibition of LNCaP cell growth” value in data set [6] (5 days) was 10 pM. In data set [6] (Homo sapiens, LNCaP, 120 h, 5 days incubation, read-out: IC50, LNCaP cell growth), the IC50 was around 0.09 nM. In data set [7] (100 nM, 18 hours of treatment), the “DNA fragmentation (gel electrophoresis)” value is on record as “induced DNA fragmentation”. For the same molecule, the “apoptosis by optical microscopy” value in data set [7] (paclitaxel treated cells, intracellular apoptotic bodies) was “clear evidence of apoptosis”. Further, the solubility in water in data set [4] (water) was 1 to 2 µg/mL. Besides, the “solubility in water (in words)” value in data set [4] (water) is given as “insoluble in water”. For the same molecule, the toxic limit in data set [8] was 200 mg. The solubility in data set [3] (water) is below 2 µg/mL.
Regarding `O=C1c2c(O)cccc2Cc2cccc(O)c21` [Anthralin], the “solubility in water (in words)” value in data set [4] (water) was “practically insoluble in water”.
Consider `C[C@H]1C[C@H]2[C@@H]3CCC4=CC(=O)C=C[C@]4(C)[C@@]3(F)[C@@H](O)C[C@]2(C)[C@@]1(O)C(=O)CO` [Betamethasone], for which the solubility in water in data set [4] (water) was 190 µg/mL (≈ 484 µM).
Take `CC[C@@]1(O)C(=O)OCc2c1cc1n(c2=O)Cc2cc3ccccc3nc2-1` [Camptothecin]: the “percentage of cells to which the drug was toxic” value in data set [6] (0.001 nM) is “over 60%”. Besides, the “492 nm Absorbance” value in data set [6] (0.001 nM, 5 days) was found to be 0.169 ± 0.05; in data set [6] (0.05 nM, 5 days) it was 0.14 ± 0.04; in data set [6] (0.1 nM, 5 days), 0.10 ± 0.02; in data set [6] (1 nM, 5 days) it was 0.10 ± 0.02; in data set [6] (10 nM, 5 days), 0.088 ± 0.02; in data set [6] (100 nM, 5 days), 0.038 ± 0.01. Besides, the “% Growth” value is on record as 36% in data set [6] (0.001 nM, 5 days); 29% in data set [6] (0.05 nM, 5 days); 21% in data set [6] (0.1 nM, 5 days); 21% in data set [6] (1 nM, 5 days); 17% in data set [6] (10 nM, 5 days); 8% in data set [6] (100 nM, 5 days). Moreover, the “IC50 against LNCaP cells (in words)” value in data set [6] (inferred from Table 12) is “femtomolar concentration range”. Besides, in data set [4] (water), the solubility in water is 1 to 2 µg/mL. Also, the “solubility in water (in words)” value in data set [4] (water) is recorded as “insoluble in water”. The same molecule had a solubility in data set [5] (water) below 2 µg/mL.
As to `COc1cc(/C=C/C(=O)CC(=O)/C=C/c2ccc(O)c(OC)c2)ccc1O` [Curcumin], the “solubility in water (in words)” value in data set [4] (water) is reported as “practically insoluble in water”. The same molecule registered a solubility in data set [3] (water) below 2 µg/mL.
For the molecule `CC1=C(/C=C/C(C)=C/C=C/C(C)=C/C(=O)O)C(C)(C)CCC1` [Tretinoin], the “solubility in water (in words)” value is listed as “practically insoluble in water” in data set [4] (water) and “insoluble in water” in data set [4] (water, listed as tretinoin). The solubility in data set [3] (water) was below 2 µg/mL.
As to `COc1ccc2c(c1)c(CC(=O)O)c(C)n2C(=O)c1ccc(Cl)cc1` [Indomethacin], the “solubility in water (in words)” value in data set [4] (water) is given as “practically insoluble in water”.
As for `C[C@@H]1[C@H](O)[C@@H](C)/C=C/C=C/CC/C=C/C=C/C=C/C=C/C(O[C@H]2O[C@H](C)[C@@H](O)[C@H](N)[C@@H]2O)CC2O[C@](O)(CC(O)C(O)CCC(O)CC(O)CC(O)CC(=O)O[C@H]1C)CC(O)C2C(=O)O` (some centres unmarked) [nystatin], the “solubility in water (in words)” value in data set [4] (water) was “insoluble in water”.
`C[C@@H]1C[C@H]2[C@@H]3CCC4=CC(=O)C=C[C@]4(C)[C@@]3(F)[C@@H](O)C[C@]2(C)[C@@]1(O)C(=O)CO` [Dexamethasone]: the solubility in water in data set [4] (water) was 10 µg/mL (≈ 25.5 µM).
